Reference: paper PMC10999543, “Identification of kinase modulators as host-directed therapeutics against intracellular methicillin-resistant Staphylococcus aureus” (Frontiers in Cellular and Infection Microbiology, 2024)
Like-named read-outs stand apart in the source and are kept apart here.

How the values were obtained:
[1] = tested on: intracellular MRSA in HeLa cells; test: Gentamicin protection assay with CFU count in MRSA-infected HeLa cells; format: cell-based, Staphylococcus aureus; details: tested at different concentrations, Figure 4K
Description: The cells were resuspended in cell culture medium without antibiotics, seeded with 10,000 cells/well into Costar flat-bottom 96-well plates (Corning, Amsterdam, the Netherlands), and were incubated overnight at 37°C/5% CO2. The next day, the bacteria were centrifuged at ≥1800 g for 15 min and resuspended in cold PBS + 5 mM ethylenediaminetetraacetic acid (EDTA). The number of CFUs present in the bacterial suspension was estimated from the optical density at 600 nm (OD600) by assuming 8x10^8 CFUs to be present in a bacterial suspension with OD600 = 1, based on prior titrations. The bacterial suspension was diluted in cell culture medium without antibiotics and added to the cells. Accuracy of the multiplicity of infection (MOI) was validated by plating serial dilutions of the MRSA inoculums on Difco TS agar plates (BD Biosciences). The calculated mean MOI throughout all experiments was 6.8 ± 4.6 (mean ± SD). Infected cells were centrifuged for 3 min at 150 g and incubated for 1 hour at 37°C/5% CO2. Next, the cells were incubated with fresh cell culture medium supplemented with 30 µg/ml gentamicin sulphate (Lonza BioWhittaker, Basel, Switzerland) for 15 min at 37°C/5% CO2 to kill residual extracellular bacteria. Infected cells were incubated overnight at 37°C/5% CO2 in cell culture medium in the presence of kinase inhibitors and 5 µg/ml gentamicin sulphate-containing medium to prevent the growth of extracellular bacteria. The solvent of the compounds, DMSO, was used at equal % v/v as a negative control. For the screen, each compound was tested in triplicate, on separate cell culture plates, resulting in triplicate values for each kinase inhibitor.
Infected cells were lysed in sterile water + 0.05% UltraPure SDS solution (Invitrogen, ThermoFisher Scientific) to release intracellular bacteria. Bacterial suspensions and lysates of cells infected with MRSA were 5-fold serially diluted and 10-μl drops were plated on square TS agar plates. The plates were left to dry and incubated overnight at 37°C/5% CO2.

[2] = tested on: intracellular MRSA; format: cell-based, Staphylococcus aureus; details: for %GFP+ rep 1 / z-scoreMRSA+ rep 1: replicate 1; for %GFP+ rep 2 / z-scoreMRSA+ rep 2: replicate 2; for %GFP+ rep 3 / z-scoreMRSA+ rep 3: replicate 3; for z-scoreMRSA+ mean: mean of 3 replicates
How it was run: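 HeLa, MRSA-GFP at MOI ~6.8, 1 h infection; gentamicin 30 µg/ml for 15 min; inhibitor plus gentamicin 5 µg/ml overnight, 37°C/5% CO2; triplicate plates; FACS %GFP+ and cell count; hit = z ≤ -2 MRSA+, z ≥ -3 count.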

[3] = tested on: HeLa cells; test: Compound screen by flow cytometry: HeLa cell count as surrogate readout of cell viability (z-scoreHeLa); format: cell-based, human; details: for cell count rep 1 / z-scoreHeLa rep 1: replicate 1; for cell count rep 2 / z-scoreHeLa rep 2: replicate 2; for cell count rep 3 / z-scoreHeLa rep 3: replicate 3; for z-scoreHeLa mean: mean of 3 replicates
How it was run: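 HeLa cells were infected with GFP-MRSA (mean MOI 6.8 ± 4.6) for 1 h, and extracellular bacteria were killed with 30 µg/ml gentamicin. Cells were then incubated overnight with kinase inhibitors in 5 µg/ml gentamicin, in triplicate against DMSO controls. Flow-cytometric cell count served as a viability surrogate, expressed as a plate z-score.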

[4] = tested on: EGFR; set-up: method as in Elkins et al., 2016; details: PKIS1, Caliper assay, ref Elkins et al., 2016; cited from earlier work
[5] = tested on: HER2; set-up: method as in Elkins et al., 2016; details: PKIS1, Caliper assay, ref Elkins et al., 2016; cited from earlier work
[6] = tested on: HER4; set-up: method as in Elkins et al., 2016; details: PKIS1, Caliper assay, ref Elkins et al., 2016; cited from earlier work
[7] = PKIS compounds raw data, MRSA-infected HeLa cells
[8] = Yes/No: effect without cell death
[9] = compound screen, MRSA-infected HeLa cells
[10] = PKIS compounds raw data, HeLa cell count
[11] = compound screen, HeLa cell count
[12] = PKIS compound screen, Yes/No call
[13] = PKIS compound screen, Yes/No call (effect without cell death)
[14] = PKIS compound screen raw data, MRSA-infected HeLa cells
[15] = PKIS compound screen, MRSA-infected HeLa cells
[16] = PKIS compound screen, Yes/No call on z-scoreMRSA+
[17] = PKIS compound screen raw data, HeLa cell count
[18] = PKIS compound screen, HeLa cell count
[19] = PKIS compound screen, Yes/No call on z-scoreHeLa

## CNC(=O)CN1CCC(Oc2cc3c(Nc4cccc(Cl)c4F)ncnc3cc2OC)CC1 [sapitinib, reference compound]
[1]
  effect on bacterial burden of MRSA-infected HeLa cells: unable to reduce the bacterial burden

## O=S(=O)(CCOCc1ccc(-c2ccc3ncnc(Nc4ccc(OCc5cccc(F)c5)c(Cl)c4)c3c2)o1)c1ccccc1 [GW615311X]
[2]; [7]
  %GFP+ rep 1: 14.3%
  %GFP+ rep 2: 12.7%
  %GFP+ rep 3: 13.9%
[2]; Yes/No call from z-scoreMRSA+
  effect: No
[2]; [8]
  hit: No
[2]; [9]
  z-scoreMRSA+ mean: -0.16
  z-scoreMRSA+ rep 1: 0.36
  z-scoreMRSA+ rep 2: -0.27
  z-scoreMRSA+ rep 3: -0.59
[3]; [10]
  cell count rep 1: 4217
  cell count rep 2: 4665
  cell count rep 3: 7934
[3]; Yes/No call from z-scoreHeLa
  cell death: No
[3]; [11]
  z-scoreHeLa mean: 0.09
  z-scoreHeLa rep 1: -0.51
  z-scoreHeLa rep 2: 0.30
  z-scoreHeLa rep 3: 0.47
[4]
  % inhibition at 1 µM EGFR: 85%
[5]
  % inhibition at 1 µM HER2: 70%
[6]
  % inhibition at 1 µM HER4: 73%

## [O-][S+]1CCN(Cc2ccc(-c3ccc4ncnc(Nc5ccc(OCc6ccccc6)c(Cl)c5)c4c3)o2)CC1 [GW583373A]
[2]; [12]
  effect: No
[2]; [13]
  hit: No
[2]; PKIS compound screen
  z-scoreMRSA+ mean: -1.31
  z-scoreMRSA+ rep 1: -1.43
  z-scoreMRSA+ rep 2: -1.26
  z-scoreMRSA+ rep 3: -1.26
[2]; [7]
  %GFP+ rep 1: 19.7%
  %GFP+ rep 2: 19.5%
  %GFP+ rep 3: 20.5%
[3]; [12]
  cell death: No
[3]; PKIS compound screen
  z-scoreHeLa mean: 1.46
  z-scoreHeLa rep 1: 1.65
  z-scoreHeLa rep 2: 1.30
  z-scoreHeLa rep 3: 1.44
[3]; [10]
  cell count rep 1: 8794
  cell count rep 2: 7971
  cell count rep 3: 7863
[5]
  % inhibition at 1 µM HER2: 73%
[6]
  % inhibition at 1 µM HER4: 84%

## COc1ccc(-c2oc3ncnc(N)c3c2-c2ccc(NC(=O)Nc3cc(C(F)(F)F)ccc3F)cc2)cc1 [GW768505A]
[2]; [7]
  %GFP+ rep 1: 11.3%
  %GFP+ rep 2: 13.4%
  %GFP+ rep 3: 12.4%
[2]; Yes/No call from z-scoreMRSA+
  effect: No
[2]; [8]
  hit: No
[2]; [9]
  z-scoreMRSA+ mean: -0.55
  z-scoreMRSA+ rep 1: -0.60
  z-scoreMRSA+ rep 2: -0.0319
  z-scoreMRSA+ rep 3: -1.03
[3]; [10]
  cell count rep 1: 2576
  cell count rep 2: 4064
  cell count rep 3: 5860
[3]; Yes/No call from z-scoreHeLa
  cell death: No
[3]; [11]
  z-scoreHeLa mean: -0.89
  z-scoreHeLa rep 1: -1.99
  z-scoreHeLa rep 2: -0.15
  z-scoreHeLa rep 3: -0.53

## COc1ccc(Nc2nccc(N3CCC(NC(=O)Nc4cccc(OC)c4)C3)n2)cc1 (stereo not shown) [GSK1379742A]
[2]; [14]
  %GFP+ rep 1: 17.9%
  %GFP+ rep 2: 19.2%
  %GFP+ rep 3: 19.1%
[2]; [15]
  z-scoreMRSA+ mean: 0.00235
  z-scoreMRSA+ rep 1: 0.0133
  z-scoreMRSA+ rep 2: 0.20
  z-scoreMRSA+ rep 3: -0.21
[2]; [12]
  effect: No
[2]; [13]
  hit: No
[2]; [16]
  effect: No
[2]; PKIS compound screen
  z-scoreMRSA+ mean: 0.33
  z-scoreMRSA+ rep 1: -0.05
  z-scoreMRSA+ rep 2: 0.88
  z-scoreMRSA+ rep 3: 0.15
[2]; [7]
  %GFP+ rep 1: 26.8%
  %GFP+ rep 2: 30.6%
  %GFP+ rep 3: 28.1%
[3]; [17]
  cell count rep 1: 25651
  cell count rep 2: 33132
  cell count rep 3: 39377
[3]; [18]
  z-scoreHeLa mean: 0.12
  z-scoreHeLa rep 1: 0.84
  z-scoreHeLa rep 2: -0.31
  z-scoreHeLa rep 3: -0.18
[3]; [12]
  cell death: No
[3]; [19]
  cell death: No
[3]; PKIS compound screen
  z-scoreHeLa mean: 1.53
  z-scoreHeLa rep 1: 1.56
  z-scoreHeLa rep 2: 0.68
  z-scoreHeLa rep 3: 2.36
[3]; [10]
  cell count rep 1: 8641
  cell count rep 2: 7027
  cell count rep 3: 9326

## CC(=O)N1CCN(c2ccc(Nc3nccc(-c4sc(C(C)C)nc4-c4cccc(NS(=O)(=O)c5cccc(Cl)c5)c4)n3)cn2)CC1 [GSK1660437A]
[2]; [14]
  %GFP+ rep 1: 26.9%
  %GFP+ rep 2: 24.1%
  %GFP+ rep 3: 23.6%
[2]; Yes/No call from z-scoreMRSA+
  effect: No
[2]; [8]
  hit: No
[2]; [9]
  z-scoreMRSA+ mean: 0.39
  z-scoreMRSA+ rep 1: 0.38
  z-scoreMRSA+ rep 2: 0.36
  z-scoreMRSA+ rep 3: 0.42
[3]; [17]
  cell count rep 1: 4478
  cell count rep 2: 3506
  cell count rep 3: 4504
[3]; Yes/No call from z-scoreHeLa
  cell death: No
[3]; [11]
  z-scoreHeLa mean: -0.33
  z-scoreHeLa rep 1: 0.09
  z-scoreHeLa rep 2: -0.61
  z-scoreHeLa rep 3: -0.46

## Cc1cn2c(=O)cc(N3CCOCC3)nc2n1Cc1cccc(Cl)c1Cl [GSK2334006A]
[2]; [14]
  %GFP+ rep 1: 10.9%
  %GFP+ rep 2: 13.1%
  %GFP+ rep 3: 15.5%
[2]; [15]
  z-scoreMRSA+ mean: -1.80
  z-scoreMRSA+ rep 1: -2.11
  z-scoreMRSA+ rep 2: -1.72
  z-scoreMRSA+ rep 3: -1.57
[2]; [12]
  effect: No
[2]; [13]
  hit: No
[2]; [16]
  effect: No
[2]; PKIS compound screen
  z-scoreMRSA+ mean: -0.59
  z-scoreMRSA+ rep 1: -0.75
  z-scoreMRSA+ rep 2: -1.01
  z-scoreMRSA+ rep 3: -0.0127
[2]; [7]
  %GFP+ rep 1: 23.2%
  %GFP+ rep 2: 20.8%
  %GFP+ rep 3: 27.2%
[3]; [17]
  cell count rep 1: 38408
  cell count rep 2: 33023
  cell count rep 3: 28416
[3]; [18]
  z-scoreHeLa mean: 1.52
  z-scoreHeLa rep 1: 1.39
  z-scoreHeLa rep 2: 1.33
  z-scoreHeLa rep 3: 1.85
[3]; [12]
  cell death: No
[3]; [19]
  cell death: No
[3]; PKIS compound screen
  z-scoreHeLa mean: -0.32
  z-scoreHeLa rep 1: -0.18
  z-scoreHeLa rep 2: -0.55
  z-scoreHeLa rep 3: -0.25
[3]; [10]
  cell count rep 1: 5750
  cell count rep 2: 5179
  cell count rep 3: 5208

## CC(C)S(=O)(=O)N1CCN(Cc2ccc3c(c2)nc(NC(=O)c2ccsc2)n3C[C@H](O)c2ccccc2)CC1 [GW635815X]
[2]; [14]
  %GFP+ rep 1: 12.8%
  %GFP+ rep 2: 14.2%
  %GFP+ rep 3: 14.5%
[2]; [15]
  z-scoreMRSA+ mean: -1.62
  z-scoreMRSA+ rep 1: -1.60
  z-scoreMRSA+ rep 2: -1.42
  z-scoreMRSA+ rep 3: -1.84
[2]; [13]
  hit: No
[2]; [16]
  effect: No
[3]; [17]
  cell count rep 1: 31634
  cell count rep 2: 26865
  cell count rep 3: 24254
[3]; [18]
  z-scoreHeLa mean: 0.52
  z-scoreHeLa rep 1: 0.24
  z-scoreHeLa rep 2: 0.27
  z-scoreHeLa rep 3: 1.04
[3]; [19]
  cell death: No
